# Experiments:
# Assay in all cases: Post-emergence test experiment (Table 3, 1000 g/ha)
# Assay type in all cases: in vivo
# Settings in all cases: post-emergence spray, after 3 weeks, fresh weight inhibition
# Abutilon theophrasti = test system: Abutilon theophrasti
# How it was run: (§1)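 Weed seeds sown in soil-filled pots in greenhouse, sprayed at 2-3 leaf stage (2 weeks after sowing) with compound in acetone/tween-80 plus methyl oleate emulsible concentrate (1.5 L/ha) diluted in water. Fresh-weight growth inhibition scored after 3 weeks on 0-5 scale (5: >85%, 0: <5%).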
# Digitaria sanguinalis = test system: Digitaria sanguinalis
# How it was run: as §1
# Galium spurium = test system: Galium spurium
# How it was run: as §1
# Leptochloa chinensis = test system: Leptochloa chinensis
# How it was run: as §1
# Monochoria vaginalis = test system: Monochoria vaginalis
# How it was run: as §1
# Setaria viridis = test system: Setaria viridis
# How it was run: as §1
Compound,Activity level (growth inhibition rate) Abutilon theophrasti (Abutilon theophrasti),Activity level (growth inhibition rate) Digitaria sanguinalis (Digitaria sanguinalis),Activity level (growth inhibition rate) Galium spurium (Galium spurium),Activity level (growth inhibition rate) Leptochloa chinensis (Leptochloa chinensis),Activity level (growth inhibition rate) Monochoria Vaginalis (Monochoria vaginalis),Activity level (growth inhibition rate) Setaria viridis (Setaria viridis)
CC(Oc1nc(F)c(Cl)c(N)c1Cl)C(=O)Sc1ccc2ccccc2c1 (stereo not drawn) [Compound 114],5 (Level 5: the growth inhibition rate is greater than 85%),5 (Level 5: the growth inhibition rate is greater than 85%),5 (Level 5: the growth inhibition rate is greater than 85%),5 (Level 5: the growth inhibition rate is greater than 85%),5 (Level 5: the growth inhibition rate is greater than 85%),5 (Level 5: the growth inhibition rate is greater than 85%)
CC(Oc1nc(F)c(Cl)c(N)c1Cl)C(=O)Sc1cccnc1 (stereo not drawn) [Compound 115],5 (Level 5: the growth inhibition rate is greater than 85%),5 (Level 5: the growth inhibition rate is greater than 85%),5 (Level 5: the growth inhibition rate is greater than 85%),5 (Level 5: the growth inhibition rate is greater than 85%),5 (Level 5: the growth inhibition rate is greater than 85%),5 (Level 5: the growth inhibition rate is greater than 85%)
CC(Oc1nc(F)c(Cl)c(N)c1Cl)C(=O)Sc1ccncc1 (stereo not drawn) [Compound 116],5 (Level 5: the growth inhibition rate is greater than 85%),5 (Level 5: the growth inhibition rate is greater than 85%),5 (Level 5: the growth inhibition rate is greater than 85%),5 (Level 5: the growth inhibition rate is greater than 85%),5 (Level 5: the growth inhibition rate is greater than 85%),5 (Level 5: the growth inhibition rate is greater than 85%)
Cc1cc(SC(=O)C(C)Oc2nc(F)c(Cl)c(N)c2Cl)n(C)n1 (stereo not drawn) [Compound 117],5 (Level 5: the growth inhibition rate is greater than 85%),5 (Level 5: the growth inhibition rate is greater than 85%),5 (Level 5: the growth inhibition rate is greater than 85%),5 (Level 5: the growth inhibition rate is greater than 85%),5 (Level 5: the growth inhibition rate is greater than 85%),5 (Level 5: the growth inhibition rate is greater than 85%)
CC(Oc1nc(F)c(Cl)c(N)c1Cl)C(=O)Sc1ccn(C)n1 (stereo not drawn) [Compound 118],5 (Level 5: the growth inhibition rate is greater than 85%),5 (Level 5: the growth inhibition rate is greater than 85%),5 (Level 5: the growth inhibition rate is greater than 85%),5 (Level 5: the growth inhibition rate is greater than 85%),5 (Level 5: the growth inhibition rate is greater than 85%),5 (Level 5: the growth inhibition rate is greater than 85%)

# — US12391648B2, “Pyridyloxy thioester derivative and preparation method therefor, herbicidal composition, and application” (Qingdao Kingagroot Chemical Compound Co., Ltd., priority 2018, dated 2025)
